This note sets out measurements from PubChem BioAssay (NCI).

Holding throughout (assay): NCI anticancer screen, dose series, 48 h
For test [1], the system named is SF-268 CNS.
For test [2], the system named is T-47D breast.
For test [3], the system named is IGROV1 ovarian.
Test [4] deals with SF-295 CNS.
Test [5] concerns HOP-62 NSCLC.
Test [6] concerns CCRF-CEM leukemia.
The subject of test [7] is 786-0 renal.
The subject of test [8] is NCI-H460 lung.
Test [9] has as its system MDA-N.
Test [10] concerns SK-MEL-5 melanoma.
The subject of test [11] is M14 melanoma.
In test [12] the test system is PC-3 prostate.
Test [13] has as its system NCI-H522 lung.
Test [14] relates to SK-MEL-28 melanoma.
Test [15] concerns MDA-MB-231 breast.
Test [16] has as its system SF-539 CNS.
In test [17] the test system is OVCAR-8 ovarian.
In test [18] the test system is TK-10 renal.
Test [19] concerns DU-145 prostate.
Test [20] deals with UACC-257 melanoma.

Structures are written as SMILES.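 Results reflect a 48-hour exposure of cells in 96-well plates to compound at five concentrations. TGI: total growth inhibition.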 A value given as a limit tells only on which side of the number the result lay.

As for `Cc1ccc(-c2nc(C)c(C(=O)Nc3ccc(Cl)cc3)s2)cc1`, the TGI was 91.8 µM in [1]; more than 100 µM in [2]; 82.4 µM in [3]; 33.7 µM in test [4]; 26.2 µM in [5]; more than 100 µM in [6]. For the same compound, the TGI in test [7] is 29.3 µM; in test [8] it was more than 100 µM; in test [9], more than 100 µM; in [10], 41.7 µM; in test [11], more than 100 µM; in test [12] it was more than 100 µM. Besides, the TGI in test [13] is more than 100 µM; in test [14], more than 100 µM; in [15], 75.6 µM; in test [16] it was more than 100 µM; in [17] it was 36.9 µM; in [18], 38.9 µM. The TGI in test [19] and in test [20] was more than 100 µM in each case.
On to `CC1CC(C)C(O)C(C2CC(CC(=O)NC3CCCCC3)CC(=O)O2)C1` (stereo not given), for which the TGI in test [1], in test [2], in test [3], in test [4], in test [5] and in test [6] was more than 100 µM throughout. The TGI in test [7], in test [8], in [9], in test [10], in [11] and in test [12] was more than 100 µM in each case. Besides, the TGI in test [13], in test [14], in [15], in test [16], in [17] and in test [18] was more than 100 µM throughout. The TGI in test [19] and in test [20] was more than 100 µM throughout.
For the compound `CCOC(=O)CN1C(=O)c2c(c(C)n(-c3ccccc3)c2C)C1=O`, the TGI in test [1], in test [2], in test [3], in test [4], in [5] and in test [6] was more than 100 µM in each case. Also, the TGI in test [7], in test [8], in test [9], in [10], in test [11] and in test [12] was more than 100 µM throughout. Besides, the TGI in [13], in test [14], in test [15], in [16], in [17] and in test [18] was more than 100 µM in each case. The TGI in test [19] and in test [20] was more than 100 µM each time.
For the compound `O=c1c2cc(-c3ccccc3)sc2nc2n1N=C(c1ccccc1)CS2`, the TGI in test [1] is more than 100 µM; in test [2] it was more than 100 µM; in test [4], 44.2 µM; in test [5], 23 µM; in test [6], more than 100 µM; in test [7] it was 38 µM. Moreover, the TGI in test [8] was more than 100 µM; in test [9] it was more than 100 µM; in test [10] it was 79.3 µM; in [12] it was more than 100 µM; in [13] it was more than 100 µM; in test [14], more than 100 µM. The TGI in [15] was more than 100 µM; in test [16], 89.1 µM; in test [17], more than 100 µM; in [18], more than 100 µM; in test [19] it was more than 100 µM; in [20], 91.5 µM.
`C=CCOC(=O)N1[C@H]2C#C/C=C\C#C[C@]3(O)C(=O)C[C@H](C)[C@]24O[C@]43C2=CC(=O)C=CC21OC` (stereo not given in full): the TGI in test [1] was more than 100 µM; in [2] it was more than 100 µM; in [3], 67.3 µM; in test [4], more than 100 µM; in [5], more than 100 µM; in [6], 79.5 µM. Besides, the TGI in test [7] was 38.7 µM; in test [8], 47.8 µM; in [9] it was more than 100 µM; in test [11], more than 100 µM; in [12] it was more than 100 µM; in [13], 48.5 µM. In addition, the TGI in test [14] was more than 100 µM; in test [15] it was 85.9 µM; in [16], 45.8 µM; in test [17] it was 47.9 µM; in test [18] it was 63.7 µM; in test [19], more than 100 µM. The same compound registered a TGI in test [20] of 59 µM.
For `O=C(CN1CCN(Cc2ccccc2)CC1)c1ccc2[nH]c(=O)oc2c1`, the TGI in test [1], in [2], in test [3], in test [4], in test [5] and in [6] was more than 100 µM each time. In addition, the TGI in test [7], in [8], in test [9], in test [10], in [11] and in [12] was more than 100 µM in each case. Besides, the TGI in [13], in test [14], in [15], in test [16], in [17] and in [18] was more than 100 µM throughout. The TGI in test [19] and in test [20] was more than 100 µM in each case.
`CC(C)(C)OC(=O)NCCCCC(N)C(N)=O` (stereo not given): the TGI in [1], in test [2], in test [3], in test [4], in [5] and in [6] was more than 100 µM in each case. In addition, the TGI in test [7], in test [8], in [9], in test [10], in test [11] and in test [12] was more than 100 µM in each case. Besides, the TGI in test [13], in [14], in [15], in test [16], in [17] and in test [18] was more than 100 µM in each case. Further, the TGI in test [19] and in test [20] was more than 100 µM throughout.
For the compound `NC(Cc1ccc(S(=O)(=O)O)cc1)C(=O)NC(CCCCNC(=O)NCCCCC(NC(=O)C(N)Cc1ccc(S(=O)(=O)O)cc1)C(=O)NC(Cc1ccc(S(=O)(=O)O)cc1)C(=O)O)C(=O)NC(Cc1ccc(S(=O)(=O)O)cc1)C(=O)O` (stereo not given), the TGI in [1], in test [2], in test [3], in [4], in test [5] and in test [6] was more than 100 µM throughout. Besides, the TGI in test [7], in [8], in [9], in [10], in test [11] and in test [12] was more than 100 µM throughout. The TGI in [13], in [14], in test [15], in test [16], in [17] and in test [18] was more than 100 µM in each case. Moreover, the TGI in test [19] and in [20] was more than 100 µM each time.
As to `O=C(Nc1nnc(-c2ccccc2)o1)C(SC(=S)N1CCCCC1)c1ccccc1` (stereo not given), the TGI was more than 100 µM in test [2]; more than 100 µM in test [3]; more than 100 µM in test [4]; 92.1 µM in test [5]; 14.1 µM in [6]; 87.5 µM in test [7]. The TGI in test [8] came to 34.6 µM; in test [9], 69.9 µM; in test [10], 28.2 µM; in test [11], 27.4 µM; in test [12], 96.2 µM; in test [13], 97.6 µM. For the same compound, the TGI is more than 100 µM in [14]; more than 100 µM in test [15]; 71.3 µM in [16]; more than 100 µM in [17]; more than 100 µM in test [18]; 71.6 µM in test [19]. This compound showed a TGI in [20] of more than 100 µM.
In the case of `OCC1OC(n2nc(-c3ccccc3)nc2-c2cnccn2)C(O)C(O)C1O` (stereo not given), the TGI in test [2], in test [3], in test [4], in [5], in test [6] and in test [7] was more than 100 µM in each case. The TGI in test [8], in [9], in [10], in test [11], in [12] and in test [13] was more than 100 µM in each case. The TGI in [14], in test [15], in [16], in test [17], in [19] and in [20] was more than 100 µM throughout.
Turning to `CCC(C#N)(c1ccccc1)N(CCc1ccccc1)C(=O)c1ccccc1` (stereo not given), the TGI in test [1] is more than 100 µM; in [2], more than 100 µM; in test [3] it was more than 100 µM; in test [4], more than 100 µM; in test [5], 50.8 µM; in test [6], more than 100 µM. Besides, the TGI in test [7] was 37.5 µM; in test [9] it was more than 100 µM; in test [10], more than 100 µM; in [11], more than 100 µM; in test [12], more than 100 µM; in test [13] it was more than 100 µM. Moreover, the TGI in test [14] is more than 100 µM; in test [15], 52.2 µM; in test [16] it was 34.8 µM; in [17] it was 54.2 µM; in [18], more than 100 µM; in [19] it was more than 100 µM. Besides, the TGI in test [20] was more than 100 µM.
In the case of `COc1cc2c[n+](C)c3c4cc(OC)c(OC)cc4c(OC)cc3c2cc1OC`, the TGI in [1] was 18.7 µM; in [2], 12.2 µM; in test [4], more than 100 µM; in [5], more than 100 µM; in [6] it was more than 100 µM; in test [7], more than 74.6 µM. In addition, the TGI in [8] is more than 100 µM; in [9] it was more than 45.9 µM; in [10], 14.9 µM; in test [11] it was more than 100 µM; in test [12] it was 98.9 µM; in test [13], 2.03 µM. Besides, the TGI was more than 81.9 µM in test [14]; 19.8 µM in test [15]; more than 100 µM in [16]; 23 µM in test [17]; more than 100 µM in test [18]; more than 65.3 µM in test [19]. For the same compound, the TGI in test [20] came to 18.3 µM.
Consider `Cc1cccc(C(C)C)c1NC(=O)C(=O)CC(=O)c1sc(Nc2ccccc2Cl)nc1C`, for which the TGI in test [1], in test [2], in test [3], in [4], in test [5] and in [6] was more than 100 µM each time. Besides, the TGI in test [7] is more than 100 µM; in test [8] it was 51.1 µM; in [9], 54.6 µM; in test [10] it was 87.9 µM; in [11], more than 100 µM; in test [12] it was more than 100 µM. Further, the TGI in test [13] was more than 100 µM; in test [14], more than 100 µM; in test [15], more than 100 µM; in test [16], 24.7 µM; in [18], more than 100 µM; in test [19], more than 100 µM. The TGI in test [20] was more than 100 µM.
As for `CCOC(=O)c1ccc(Nc2cnc3cc(C(F)(F)F)ccc3n2)cc1`, the TGI in test [1], in test [2], in [3], in test [4], in [5] and in [6] was more than 100 µM each time. Moreover, the TGI in test [7], in [8], in test [9], in test [10], in [12] and in test [13] was more than 100 µM throughout. Further, the TGI in [14], in test [15], in test [16], in test [17], in test [18] and in [19] was more than 100 µM throughout. The compound also gave a TGI in test [20] of more than 100 µM.
